Here are results for 7 compounds from patent US10988433B2, “Cyclohexyl GPR40 agonists for the treatment of type II diabetes” (Janssen Pharmaceutica NV, priority 2016, dated 2021).

Experiment [1] concerns the target T1, human GPR40 (Homo sapiens, UniProt O14842).
T1 construct: expressed in transfected cells
Put plainly: GPR40 calcium flux assay, HEK293 cells stably expressing human GPR40. The format is cell-based. The conditions noted are these: transfected HEK293 cells stably expressing human GPR40, Fluo 8 dye, read-out: hGPR40 Ca2+ Assay EC50. Background: Calcium flux is commonly read through the fluorescence of an indicator in the cells.

The target of experiment [2] is T2, rat GPR40 (Rattus norvegicus, UniProt Q8K3T4).
T2 construct: expressed in transfected cells
T2 sequence (Q8K3T4 whole entry): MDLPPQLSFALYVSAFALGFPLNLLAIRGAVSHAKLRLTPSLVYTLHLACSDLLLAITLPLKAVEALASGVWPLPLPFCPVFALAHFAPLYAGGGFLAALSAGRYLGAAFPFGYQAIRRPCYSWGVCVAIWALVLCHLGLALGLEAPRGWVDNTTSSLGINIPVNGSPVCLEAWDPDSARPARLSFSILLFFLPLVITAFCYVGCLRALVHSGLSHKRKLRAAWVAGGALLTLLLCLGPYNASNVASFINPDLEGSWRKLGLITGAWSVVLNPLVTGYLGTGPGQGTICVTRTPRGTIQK
Put plainly: GPR40 calcium flux assay, HEK293 cells stably expressing rat GPR40. The format is cell-based. The conditions noted are these: transfected HEK293 cells stably expressing rat GPR40, Fluo 8 dye, read-out: rGPR40 Ca2+ Assay EC50.

For experiment [3], the system named is Male ZDF rats. In words: Oral Glucose Tolerance Test, Version B. The format is in vivo, rat. As to conditions: Assay Version B: fasted male ZDF rats, compound 10 mg/kg 120 min prior to OGTT (glucose 1 g/kg po); blood glucose AUC t=0 to 120 min vs vehicle. As to the method:
Male ZDF rats (7 weeks old, 200-240 g) were housed 2 per cage in a temperature-controlled room with a 12-hour light/dark cycle. They were allowed ad libitum access to water and fed with 5008 rodent chow. The night before the oral glucose tolerance test (OGTT), the rats were transferred to clean cages and fasted overnight. On the morning of the OGTT, the rats were weighed and randomized into groups based on fasted blood glucose and body weight. Rats were dosed with vehicle (0.5% Methocel) or compound (10 mg/kg) 120 min prior to the OGTT (glucose, 1 g/kg, po). Blood was collected from the tail vein at 0, 10, 30, 60 and 120 minutes after glucose challenge to measure blood glucose; plasma was used to determine insulin levels. The area under the curve for blood glucose excursion was calculated from t=0 to t=120 minutes. Percent lowering of glucose was calculated from the AUC data with respect to the vehicle-treated group.

Experiment [4] has as its system Male SD rats. Put plainly: Oral Glucose Tolerance Test, Version A. The format is in vivo, rat. The conditions noted are these: Assay Version A: fasted male SD rats, dosed 30 min prior to oGTT (glucose 2 g/kg po); blood glucose AUC t=0 to 120 min vs vehicle. As to the method:
Male SD rats (200-250 g) were housed 2 per cage in a temperature-controlled room with a 12-hour light/dark cycle. They were allowed ad libitum access to water and fed with normal rodent chow. The night before the oral glucose tolerance test (oGTT), the rats were transferred to clean cages and fasted overnight. On the morning of the oGTT, the rats were weighed and randomized into groups based on fasted blood glucose and body weight. Rats were dosed with vehicle (0.5% methocel) or compounds thirty min prior to the oGTT (glucose, 2 g/kg, po). Blood was collected from the tail vein at 0, 10, 30, 60 and 120 minutes after glucose challenge to measure blood glucose; plasma was used to determine insulin levels. The area under the curve for blood glucose excursion was calculated from t=0 to t=120 minutes. Percent lowering of glucose was calculated from the AUC data with respect to the vehicle-treated group.

T1 sequence (O14842 whole entry): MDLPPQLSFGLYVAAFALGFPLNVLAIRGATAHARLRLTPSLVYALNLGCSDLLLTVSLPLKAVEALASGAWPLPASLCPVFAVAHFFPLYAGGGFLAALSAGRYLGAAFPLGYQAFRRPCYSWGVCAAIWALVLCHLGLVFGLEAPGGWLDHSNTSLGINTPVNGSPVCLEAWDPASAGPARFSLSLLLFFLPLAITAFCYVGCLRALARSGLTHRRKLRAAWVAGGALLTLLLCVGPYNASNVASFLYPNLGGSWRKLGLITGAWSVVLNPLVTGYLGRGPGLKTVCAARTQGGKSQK

In the case of `COc1ccc(F)c([C@H]2CC[C@H](COc3cccc([C@H](C4CC4)[C@@](C)(F)C(=O)O)c3)CC2)c1` [Cpd 59, (2R,3S)-3-Cyclopropyl-2-fluoro-3-(3-(((1r,4S)-4-(2-fluoro-5-methoxyphenyl)cyclohexyl)methoxy)phenyl)-2-methylpropanoic acid], the 50% effective concentration (EC50) turned out to be 0.27 nM in experiment [1] and 0.72 nM in experiment [2]. Also, in experiment [3], the “Percent Lowering of Glucose (AUC compound vs. AUC Vehicle)” value (from here on “Percent Lowering of Glucose”) was determined as 48%.

Take `COc1ccc(F)c([C@H]2CC[C@@H](COc3cccc([C@@H](CC(=O)O)C4CC4)c3)CC2)c1` [Cpd 1, (S)-3-Cyclopropyl-3-(3-(((1s,4R)-4-(2-fluoro-5-methoxyphenyl)cyclohexyl)methoxy)phenyl) propanoic acid]: the EC50 in experiment [1] is 36.2 nM; in experiment [2], 105 nM. Besides, the “Percent Lowering of Glucose” value in experiment [4] came to 11%.

Take `COc1ccc(F)c([C@H]2CC[C@H](COc3cccc([C@@H](CC(=O)O)C4CC4)c3)CC2)c1` [Cpd 2, (S)-3-Cyclopropyl-3-(3-(((1r,4 S)-4-(2-fluoro-5-methoxyphenyl)cyclohexyl)methoxy)phenyl) propanoic acid]: the concentration for a half-maximal effect (EC50) worked out at 0.8 nM in experiment [1] and 3.4 nM in experiment [2]. For the same compound, the “Percent Lowering of Glucose” value in experiment [4] came out at 33%.

On to `COc1cc([C@H]2CC[C@H](COc3cc([C@@H](CC(=O)O)C4CC4)ccn3)CC2)c(F)cn1` [Cpd 25, (S)-3-Cyclopropyl-3-(2-(((1r,4S)-4-(5-fluoro-2-methoxypyridin-4-yl)cyclohexyl)methoxy)pyridin-4-yl)propanoic acid], for which the EC50 in experiment [1] is 5.3 nM; in experiment [2], 1.3 nM. For the same compound, the “Percent Lowering of Glucose” value in experiment [4] came to 28%.

Turning to `COc1ccc(F)c([C@H]2CC[C@H](COc3cc([C@@H](CC(=O)O)C4CC4)ccn3)CC2)c1` [Cpd 27, (S)-3-Cyclopropyl-3-(2-(((1r,4s)-4-(2-fluoro-5-methoxyphenyl)cyclohexyl)methoxy)pyridin-4-yl)propanoic acid], the half-maximal effective concentration (EC50) amounted to 0.2 nM in experiment [1] and 0.9 nM in experiment [2]. Further, the “Percent Lowering of Glucose” value in experiment [4] was found to be 32%.

Take `COc1ccc(F)c([C@H]2CC[C@H](COc3cccc([C@H](C4CC4)[C@](C)(F)C(=O)O)c3)CC2)c1` [Cpd 60, (2S,3S)-3-Cyclopropyl-2-fluoro-3-(3-(((1r,4S)-4-(2-fluoro-5-methoxyphenyl)cyclohexyl)methoxy)phenyl)-2-methylpropanoic acid]: the EC50 is 6.05 nM in experiment [1] and 6.88 nM in experiment [2].

Take `COc1cc([C@H]2CC[C@@H](COc3cc(C(CC(=O)O)C4CC4)ccn3)CC2)c(F)cn1` (stereo partly shown) [Cpd 7, 3-Cyclopropyl-3-(2-(((1s,4s)-4-(5-fluoro-2-methoxypyridin-4-yl)cyclohexyl)methoxy)pyridin-4-yl)propanoic acid]: the EC50 in experiment [1] was 34.7 nM; in experiment [2], 79.8 nM.

For orientation: EC50 means the midpoint of the concentration-response curve.
